Values of other authors in patent publication EP0277754A1, “Method involving propylene amine oxime complexes” (AMERSHAM INTERNATIONAL plc, priority 1987, dated 1988).

retention in human brain: retained only to a small extent
SMILES: CC(=NO)C(C)(C)NCCCNC(C)(C)C(C)=NO [PnAO]
